Earlier results on one molecule are cited in CN114794330A, “一种调节水生动物活力状态的功能性调理剂及其制备方法” (Nori Shanghai Bioengineering Co ltd, priority 2022, dated 2022).

`NCCS(=O)(=O)O` [牛磺酸, 2-氨基乙磺酸]: the “solubility in 95% ethanol” value (95% ethanol, 17℃) is given as 0.004%. The solubility in acetone result (acetone) is on record as “不溶”. Under “anhydrous ethanol”, the “solubility in anhydrous ethanol” value is “不溶”. Besides, for the setting “diethyl ether”, the “solubility in diethyl ether” value was “不溶”. Where the note is “water, 12℃”, the solubility in water is on record as 0.5%.
